Results reported in patent US9249145B2, “Heterocyclic derivatives of pyrazol-4-yl-pyrrolo[2,3-d]pyrimidines as janus kinase inhibitors” (Incyte Holdings Corporation, priority 2009, dated 2016).

Columns and labels:
[1] = target: T1, human JAK1 (a.a. 837-1142) (Homo sapiens, UniProt P23458); assay: In vitro JAK kinase assay (HTRF, phosphorylation of biotinylated peptide), JAK1; type: biochemical; details: 1 mM ATP; Examples 92-162; read-out: JAK1 IC50 (nM) @ 1 mM ATP
T1 construct: The catalytic domains of human JAK1 (a.a. 837-1142); His tag (N); made in house; host or cells: insect cells (baculovirus)
T1 sequence (P23458 849-1154): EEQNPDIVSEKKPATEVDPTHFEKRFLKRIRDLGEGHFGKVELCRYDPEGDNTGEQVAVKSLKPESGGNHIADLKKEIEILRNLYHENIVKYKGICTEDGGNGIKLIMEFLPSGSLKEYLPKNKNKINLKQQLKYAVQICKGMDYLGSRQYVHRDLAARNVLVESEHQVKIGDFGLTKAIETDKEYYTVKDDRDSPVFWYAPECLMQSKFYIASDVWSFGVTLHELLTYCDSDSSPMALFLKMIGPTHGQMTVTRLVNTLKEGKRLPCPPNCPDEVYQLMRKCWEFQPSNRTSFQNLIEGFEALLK
Outline: (§1)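 IC50 from HTRF detection (Eu-Py20 antibody, SA-APC, 40 min) after EDTA quench. Reactions ran 1 h at room temperature with 500 nM biotinylated peptide in Tris pH 7.8 buffer with NaCl, DTT, BSA; ATP 90 μM for JAK1, 30 μM for JAK2 (Km), or 1 mM. Enzymes: His-tagged catalytic domains from insect cells.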

Jak2 (a.a. 828-1132) = target: T2, Jak2 (a.a. 828-1132) (Homo sapiens, UniProt O60674); assay: In vitro JAK kinase assay (HTRF, phosphorylation of biotinylated peptide), JAK2; type: biochemical; details: 1 mM ATP; Examples 92-162; read-out: JAK2 IC50 (nM) @ 1 mM ATP
T2 construct: Jak2 (a.a. 828-1132); His tag (N); made in house; host or cells: insect cells (baculovirus)
T2 sequence (O60674 828-1132): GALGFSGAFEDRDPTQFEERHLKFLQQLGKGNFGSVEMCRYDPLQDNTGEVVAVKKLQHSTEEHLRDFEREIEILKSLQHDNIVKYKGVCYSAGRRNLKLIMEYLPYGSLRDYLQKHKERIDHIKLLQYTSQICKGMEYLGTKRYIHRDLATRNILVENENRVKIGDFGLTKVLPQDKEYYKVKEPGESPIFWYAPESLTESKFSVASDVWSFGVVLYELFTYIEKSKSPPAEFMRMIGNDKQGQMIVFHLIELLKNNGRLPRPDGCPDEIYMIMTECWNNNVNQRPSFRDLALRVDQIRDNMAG
Outline: as §1

IC50 [1] [nM] | IC50 (Jak2 (a.a. 828-1132)) [nM] | SMILES
20 to 50 | 50 to 100 | CCC(CN1CCN(S(=O)(=O)c2cn(C)c(C)n2)CC1)n1cc(-c2ncnc3[nH]ccc23)cn1 (stereo not drawn) [Example 144, 4-(1-(1-(4-(1,2-dimethyl-1H-imidazol-4-ylsulfonyl)piperazin-1-yl)butan-2-yl)-1H-pyrazol-4-yl)-7H-pyrrolo[2,3-d]pyrimidine]
< 20 | 20 to 50 | CCC(CN1CCN(S(=O)(=O)c2ccc(Br)s2)CC1)n1cc(-c2ncnc3[nH]ccc23)cn1 (stereo not drawn) [Example 145, 4-(1-(1-(4-(5-bromothiophen-2-ylsulfonyl)piperazin-1-yl)butan-2-yl)-1H-pyrazol-4-yl)-7H-pyrrolo[2,3-d]pyrimidine]
20 to 50 | > 100 | Cc1c(Nc2ccccc2)ncnc1N1CCC(C(CC#N)n2cc(-c3ncnc4[nH]ccc34)cn2)CC1 (stereo not drawn) [Example 146, 3-[1-(6-anilino-5-methylpyrimidin-4-yl)piperidin-4-yl]-3-[4-(7H-pyrrolo[2,3-d]pyrimidin-4-yl)-1H-pyrazol-1-yl]propanenitrile]
< 20 | > 100 | Cc1c(Nc2ccccc2F)ncnc1N1CCC(C(CC#N)n2cc(-c3ncnc4[nH]ccc34)cn2)CC1 (stereo not drawn) [Example 147, 3-(4-(7H-pyrrolo[2,3-d]pyrimidin-4-yl)-1H-pyrazol-1-yl)-3-(1-(6-(2-fluorophenylamino)-5-methylpyrimidin-4-yl)piperidin-4-yl)propanenitrile]
< 20 | 50 to 100 | Cc1c(Nc2cccc(F)c2)ncnc1N1CCC(C(CC#N)n2cc(-c3ncnc4[nH]ccc34)cn2)CC1 (stereo not drawn) [Example 148, 3-(4-(7H-pyrrolo[2,3-d]pyrimidin-4-yl)-1H-pyrazol-1-yl)-3-(1-(6-(3-fluorophenylamino)-5-methylpyrimidin-4-yl)piperidin-4-yl)propanenitrile]
< 20 | > 100 | Cc1c(Nc2cc(F)ccc2F)ncnc1N1CCC(C(CC#N)n2cc(-c3ncnc4[nH]ccc34)cn2)CC1 (stereo not drawn) [Example 149, 3-(4-(7H-pyrrolo[2,3-d]pyrimidin-4-yl)-1H-pyrazol-1-yl)-3-(1-(6-(2,5-difluorophenylamino)-5-methylpyrimidin-4-yl)piperidin-4-yl)propanenitrile]
< 20 | < 20 | Cc1c(Nc2ccc(F)c(F)c2)ncnc1N1CCC(C(CC#N)n2cc(-c3ncnc4[nH]ccc34)cn2)CC1 (stereo not drawn) [Example 150, 3-(4-(7H-pyrrolo[2,3-d]pyrimidin-4-yl)-1H-pyrazol-1-yl)-3-(1-(6-(3,4-difluorophenylamino)-5-methylpyrimidin-4-yl)piperidin-4-yl)propanenitrile]
< 20 | 50 to 100 | N#CCC(C1CCN(c2cc(Oc3ccccc3)ncn2)CC1)n1cc(-c2ncnc3[nH]ccc23)cn1 (stereo not drawn) [Example 151, 3-(4-(7H-pyrrolo[2,3-d]pyrimidin-4-yl)-1H-pyrazol-1-yl)-3-(1-(6-phenoxypyrimidin-4-yl)piperidin-4-yl)propanenitrile]
20 to 50 | < 20 | N#CCC(C1CCN(c2cc(Oc3cccc(F)c3)ncn2)CC1)n1cc(-c2ncnc3[nH]ccc23)cn1 (stereo not drawn) [Example 152, 3-(4-(7H-pyrrolo[2,3-d]pyrimidin-4-yl)-1H-pyrazol-1-yl)-3-(1-(6-(3-fluorophenoxy)pyrimidin-4-yl)piperidin-4-yl)propanenitrile]
20 to 50 | > 100 | Cc1c(Nc2cccc(F)c2F)ncnc1N1CCC(C(CC#N)n2cc(-c3ncnc4[nH]ccc34)cn2)CC1 (stereo not drawn) [Example 153, 3-(4-(7H-pyrrolo[2,3-d]pyrimidin-4-yl)-1H-pyrazol-1-yl)-3-(1-(6-(2,3-difluorophenylamino)-5-methylpyrimidin-4-yl)piperidin-4-yl)propanenitrile]
< 20 | 50 to 100 | Cc1c(Nc2c(F)cccc2F)ncnc1N1CCC(C(CC#N)n2cc(-c3ncnc4[nH]ccc34)cn2)CC1 (stereo not drawn) [Example 154, 3-(4-(7H-pyrrolo[2,3-d]pyrimidin-4-yl)-1H-pyrazol-1-yl)-3-(1-(6-(2,6-difluorophenylamino)-5-methylpyrimidin-4-yl)piperidin-4-yl)propanenitrile]
< 20 | > 100 | Cc1c(Nc2ccc(F)cc2F)ncnc1N1CCC(C(CC#N)n2cc(-c3ncnc4[nH]ccc34)cn2)CC1 (stereo not drawn) [Example 155, 3-(4-(7H-pyrrolo[2,3-d]pyrimidin-4-yl)-1H-pyrazol-1-yl)-3-(1-(6-(2,4-difluorophenylamino)-5-methylpyrimidin-4-yl)piperidin-4-yl)propanenitrile]
